Data published in ChEMBL document CHEMBL1201862, “PubChem BioAssay data set” (2004).
Activity calls are given as the source filed them.

How the values were obtained:
[1] = tested on: Streptococcus; test: Luminescence Microorganism-Based Dose Response Follow up to Identify Compounds Cytotoxic to Streptococcus. [Related pubchem assays: 1677 (Project Summary), 1915, 1914, 1902 (Retest at Dose), 1900 (Counter Screen), 1662 (Primary HTS)]; type: functional, organism-based
[2] = target: T1, Potassium voltage-gated channel subfamily KQT member 2 (Rattus norvegicus, UniProt O88943); test: (§1) Mode of action assay - current amplitude concentration response for derivatives of ZTZ240, a potentiator of KCNQ2 potassium channels. [Related pubchem assays: 2258 (Summary assay for the KCNQ2 potentiators.), 2239 (Primary HTS assay for KCNQ2 potentiators with 305606 compounds tested, and 1644 are found to be active.)]; type: functional
[3] = target: T1, Potassium voltage-gated channel subfamily KQT member 2; test: as §1, with “action” for “action assay”, “deactivation constant” for “current amplitude”, “ztz240,” for “derivatives of ZTZ240,”; type: functional
[4] = target: T2, Alkaline phosphatase, tissue-nonspecific isozyme (Homo sapiens, UniProt P05186)
T2 sequence (P05186 whole entry): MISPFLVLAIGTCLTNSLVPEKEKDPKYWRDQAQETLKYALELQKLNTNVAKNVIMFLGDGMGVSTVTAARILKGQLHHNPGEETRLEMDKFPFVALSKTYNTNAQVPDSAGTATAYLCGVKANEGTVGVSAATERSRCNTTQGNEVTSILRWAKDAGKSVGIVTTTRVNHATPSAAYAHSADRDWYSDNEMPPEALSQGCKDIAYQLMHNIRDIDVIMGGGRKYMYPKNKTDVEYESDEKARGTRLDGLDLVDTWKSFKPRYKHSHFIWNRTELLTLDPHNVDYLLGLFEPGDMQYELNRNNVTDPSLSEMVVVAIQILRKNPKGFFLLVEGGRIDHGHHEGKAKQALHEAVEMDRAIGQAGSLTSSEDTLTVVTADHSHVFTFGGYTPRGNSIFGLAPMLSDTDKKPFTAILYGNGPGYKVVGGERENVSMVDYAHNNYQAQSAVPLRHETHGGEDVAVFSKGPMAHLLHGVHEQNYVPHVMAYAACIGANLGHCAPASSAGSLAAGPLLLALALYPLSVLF

[5] = target: Cytochrome P450 2D6 (Homo sapiens, UniProt P10635); test: qHTS Assay for Inhibitors and Substrates of Cytochrome P450 2D6. [Related pubchem assays: 410 ]; type: ADME; conditions: read-out: Potency
[6] = target: T3, Leucine aminopeptidase (Plasmodium falciparum 3D7, UniProt Q8IL11); test: P. falciparum M17LAP inhibitors, primary screen, biochemical, fluorogenic H-Leu-NHMec substrate, 1536-well (AID 1619); type: functional
T3 sequence (Q8IL11 whole entry): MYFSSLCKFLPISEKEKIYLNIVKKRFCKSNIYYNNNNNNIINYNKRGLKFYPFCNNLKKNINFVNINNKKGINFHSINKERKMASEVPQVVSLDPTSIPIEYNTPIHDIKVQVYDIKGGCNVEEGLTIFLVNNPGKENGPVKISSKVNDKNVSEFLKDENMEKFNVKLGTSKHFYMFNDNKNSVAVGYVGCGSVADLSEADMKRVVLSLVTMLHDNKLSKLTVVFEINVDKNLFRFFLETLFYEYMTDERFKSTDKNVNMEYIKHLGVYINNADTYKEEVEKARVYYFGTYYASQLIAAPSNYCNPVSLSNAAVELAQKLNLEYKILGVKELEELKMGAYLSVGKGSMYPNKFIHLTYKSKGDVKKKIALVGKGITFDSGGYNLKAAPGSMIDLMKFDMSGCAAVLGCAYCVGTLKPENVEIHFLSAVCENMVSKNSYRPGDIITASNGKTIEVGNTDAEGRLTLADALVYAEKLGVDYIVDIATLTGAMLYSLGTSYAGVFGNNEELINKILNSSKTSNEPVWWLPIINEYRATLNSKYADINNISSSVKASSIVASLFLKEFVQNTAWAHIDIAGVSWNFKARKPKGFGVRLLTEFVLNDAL

[7] = enhancers of respiration in Yfh1-depleted yeast, dose response, Friedreich's ataxia, plus single-dose screen (AID 1465); type: functional;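 further: yeast depleted of Yfh1p frataxin homolog grown on glycerol needing respiration; WST-1 tetrazolium dye reduction as measure of cellular dehydrogenase metabolic activity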
[8] = target: Peroxisome proliferator-activated receptor gamma/Nuclear receptor coactivator 2 (Homo sapiens, UniProt P37231); type: functional;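 further: agonist potency for raising coactivator recruitment to the receptor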
[9] = target: Peroxisome proliferator-activated receptor gamma/Nuclear receptor coactivator 1 (Homo sapiens, UniProt P37231); type: functional;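 further: agonist potency as compounds enhance coactivator SRC-1 recruitment to PPARgamma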
[10] = target: Peroxisome proliferator-activated receptor gamma/Nuclear receptor coactivator 3 (Homo sapiens, UniProt P37231); type: functional;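 further: agonist potency for raising coactivator recruitment to the receptor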
[11] = target: Aspartyl aminopeptidase (Plasmodium falciparum 3D7, UniProt Q8I2J3)
[12] = target: Procathepsin L (Homo sapiens, UniProt P07711)
[13] = target: Ras and Rab interactor 1/Tyrosine-protein kinase ABL1 (Homo sapiens, UniProt P00519+Q13671); type: functional;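 further: biochemical TR-FRET dose-response test measuring inhibition of binding between Rin1 and Abl proteins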
[14] = target: T4, Histone-lysine N-methyltransferase NSD2 (Homo sapiens, UniProt O96028); type: biochemical
T4 sequence (O96028 whole entry): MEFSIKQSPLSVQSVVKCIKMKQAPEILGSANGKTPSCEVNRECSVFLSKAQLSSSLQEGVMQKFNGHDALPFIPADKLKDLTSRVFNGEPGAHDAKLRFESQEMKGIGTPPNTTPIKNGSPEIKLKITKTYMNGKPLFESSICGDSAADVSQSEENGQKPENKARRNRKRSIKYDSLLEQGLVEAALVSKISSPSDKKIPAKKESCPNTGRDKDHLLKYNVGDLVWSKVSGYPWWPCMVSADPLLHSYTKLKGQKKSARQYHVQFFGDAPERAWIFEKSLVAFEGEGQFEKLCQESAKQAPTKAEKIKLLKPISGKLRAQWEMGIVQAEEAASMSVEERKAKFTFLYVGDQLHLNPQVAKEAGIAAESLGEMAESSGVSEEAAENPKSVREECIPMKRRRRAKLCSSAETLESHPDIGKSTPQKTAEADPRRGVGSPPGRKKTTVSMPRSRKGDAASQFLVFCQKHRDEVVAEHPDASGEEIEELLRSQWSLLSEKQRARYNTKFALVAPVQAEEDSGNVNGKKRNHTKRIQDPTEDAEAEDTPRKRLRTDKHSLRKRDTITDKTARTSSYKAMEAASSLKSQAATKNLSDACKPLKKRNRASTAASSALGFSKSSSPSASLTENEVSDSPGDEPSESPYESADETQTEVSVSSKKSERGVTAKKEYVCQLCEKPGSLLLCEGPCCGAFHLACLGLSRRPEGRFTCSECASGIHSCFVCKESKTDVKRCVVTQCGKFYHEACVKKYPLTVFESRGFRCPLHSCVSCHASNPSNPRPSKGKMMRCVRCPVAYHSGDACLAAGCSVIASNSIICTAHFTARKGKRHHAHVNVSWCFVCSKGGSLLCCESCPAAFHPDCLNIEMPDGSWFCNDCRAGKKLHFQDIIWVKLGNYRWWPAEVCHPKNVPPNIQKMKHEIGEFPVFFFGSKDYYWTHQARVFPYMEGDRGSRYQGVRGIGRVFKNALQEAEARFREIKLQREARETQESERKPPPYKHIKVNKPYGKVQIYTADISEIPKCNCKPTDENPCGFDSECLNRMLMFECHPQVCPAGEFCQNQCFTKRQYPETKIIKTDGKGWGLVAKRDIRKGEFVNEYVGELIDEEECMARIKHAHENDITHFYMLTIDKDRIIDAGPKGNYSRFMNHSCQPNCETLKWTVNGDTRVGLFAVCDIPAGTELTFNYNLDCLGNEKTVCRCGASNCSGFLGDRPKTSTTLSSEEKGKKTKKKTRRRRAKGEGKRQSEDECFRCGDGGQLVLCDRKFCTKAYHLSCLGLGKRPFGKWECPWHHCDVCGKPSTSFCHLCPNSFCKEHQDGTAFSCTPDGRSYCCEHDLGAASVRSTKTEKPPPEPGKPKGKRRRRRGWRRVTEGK

[15] = target: T5, Protein Tat (Human immunodeficiency virus type 1 group M subtype B (isolate HXB2)(HIV-1), UniProt P04608); type: functional;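 further: tat binding to TAR RNA read out by fluorescence polarization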
T5 sequence (P04608 whole entry): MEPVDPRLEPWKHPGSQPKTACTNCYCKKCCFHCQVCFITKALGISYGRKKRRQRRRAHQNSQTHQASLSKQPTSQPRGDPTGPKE

[16] = cells
[17] = HIV-1 Env-mediated cell fusion inhibitors, dose response, CCR5-tropic Env (AID 2279); type: functional
[18] = tested on: HEK293; test: Fluorescence-based counterscreen for potentiators or agonists of NPY-Y2: cell-based high-throughput dose response assay to identify inhibitors of cyclic nucleotide gated ion channel (CNGC) activity. In this assay, the parental HEK293 cell line transfected with a cyclic-nucleotide gated ion channel (CNGC)-based cAMP sensor is used to measure inhibition of isoproterenol-induced CNGC activity by test compound.; type: functional; conditions: Homo sapiens;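 further: stimulus is 1 µM isoproterenol at EC100 plus PDE inhibitor Ro 20-1724 at 25 µM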
[19] = target: Neuropeptide Y receptor type 2 (Homo sapiens, UniProt P49146); test: Fluorescence-based cell-based high-throughput dose response assay for agonists of NPY-Y2. [Related pubchem assays: 1703 (Screening assay (CNGC inhibitors).), 1359 (Screening assay (NPY-Y2 potentiators or agonists).), 1304 (Screening assay (NPY-Y1 potentiators or agonists).), 1710 (Screening assay (NPY-Y2 agonists).), 1791 (Summary AID.)]; type: functional
[20] = target: Neuropeptide Y receptor type 1 (Homo sapiens, UniProt P25929); test: Fluorescence-based counterscreen for agonists of NPY-Y2: cell-based high-throughput dose response assay for agonists of NPY-Y1.; type: functional

T1 sequence (O88943 whole entry): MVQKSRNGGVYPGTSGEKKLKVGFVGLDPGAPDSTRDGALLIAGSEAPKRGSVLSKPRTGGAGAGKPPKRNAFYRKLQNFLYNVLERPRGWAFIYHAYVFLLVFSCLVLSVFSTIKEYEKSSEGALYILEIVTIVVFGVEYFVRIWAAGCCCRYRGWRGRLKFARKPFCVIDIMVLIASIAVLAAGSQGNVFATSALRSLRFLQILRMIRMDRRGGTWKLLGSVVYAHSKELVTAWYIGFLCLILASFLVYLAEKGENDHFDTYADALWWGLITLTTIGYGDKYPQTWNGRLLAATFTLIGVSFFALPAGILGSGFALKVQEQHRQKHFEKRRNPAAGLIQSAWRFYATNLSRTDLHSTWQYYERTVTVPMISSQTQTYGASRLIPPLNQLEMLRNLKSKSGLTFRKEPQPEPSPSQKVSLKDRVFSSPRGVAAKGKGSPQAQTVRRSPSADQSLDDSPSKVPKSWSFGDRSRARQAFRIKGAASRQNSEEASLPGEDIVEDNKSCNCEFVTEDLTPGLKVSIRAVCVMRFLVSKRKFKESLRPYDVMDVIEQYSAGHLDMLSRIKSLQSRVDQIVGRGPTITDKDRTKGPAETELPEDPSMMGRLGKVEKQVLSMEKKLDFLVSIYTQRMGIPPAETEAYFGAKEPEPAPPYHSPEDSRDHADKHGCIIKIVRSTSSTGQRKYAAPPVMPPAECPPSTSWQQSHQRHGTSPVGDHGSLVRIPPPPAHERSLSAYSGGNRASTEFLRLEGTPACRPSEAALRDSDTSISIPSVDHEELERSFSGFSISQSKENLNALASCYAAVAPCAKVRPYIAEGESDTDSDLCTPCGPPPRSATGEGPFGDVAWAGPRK
Chain of Peroxisome proliferator-activated receptor gamma/Nuclear receptor coactivator 2 (P37231 whole entry): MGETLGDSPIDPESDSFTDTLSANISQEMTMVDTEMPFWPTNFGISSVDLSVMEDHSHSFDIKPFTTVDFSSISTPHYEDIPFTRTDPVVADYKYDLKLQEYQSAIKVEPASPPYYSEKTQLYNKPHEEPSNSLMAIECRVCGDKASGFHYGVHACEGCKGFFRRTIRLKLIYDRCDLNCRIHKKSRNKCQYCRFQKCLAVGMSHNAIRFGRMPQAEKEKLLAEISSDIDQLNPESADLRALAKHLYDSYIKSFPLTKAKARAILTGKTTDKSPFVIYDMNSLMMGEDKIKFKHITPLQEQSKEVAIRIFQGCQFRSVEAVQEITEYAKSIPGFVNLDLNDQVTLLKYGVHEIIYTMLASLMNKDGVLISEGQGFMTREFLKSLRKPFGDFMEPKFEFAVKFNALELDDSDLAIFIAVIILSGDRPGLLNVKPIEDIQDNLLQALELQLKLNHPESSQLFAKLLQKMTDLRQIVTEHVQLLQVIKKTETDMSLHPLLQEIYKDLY
Chain of Peroxisome proliferator-activated receptor gamma/Nuclear receptor coactivator 2 (Q15596 whole entry, further chain): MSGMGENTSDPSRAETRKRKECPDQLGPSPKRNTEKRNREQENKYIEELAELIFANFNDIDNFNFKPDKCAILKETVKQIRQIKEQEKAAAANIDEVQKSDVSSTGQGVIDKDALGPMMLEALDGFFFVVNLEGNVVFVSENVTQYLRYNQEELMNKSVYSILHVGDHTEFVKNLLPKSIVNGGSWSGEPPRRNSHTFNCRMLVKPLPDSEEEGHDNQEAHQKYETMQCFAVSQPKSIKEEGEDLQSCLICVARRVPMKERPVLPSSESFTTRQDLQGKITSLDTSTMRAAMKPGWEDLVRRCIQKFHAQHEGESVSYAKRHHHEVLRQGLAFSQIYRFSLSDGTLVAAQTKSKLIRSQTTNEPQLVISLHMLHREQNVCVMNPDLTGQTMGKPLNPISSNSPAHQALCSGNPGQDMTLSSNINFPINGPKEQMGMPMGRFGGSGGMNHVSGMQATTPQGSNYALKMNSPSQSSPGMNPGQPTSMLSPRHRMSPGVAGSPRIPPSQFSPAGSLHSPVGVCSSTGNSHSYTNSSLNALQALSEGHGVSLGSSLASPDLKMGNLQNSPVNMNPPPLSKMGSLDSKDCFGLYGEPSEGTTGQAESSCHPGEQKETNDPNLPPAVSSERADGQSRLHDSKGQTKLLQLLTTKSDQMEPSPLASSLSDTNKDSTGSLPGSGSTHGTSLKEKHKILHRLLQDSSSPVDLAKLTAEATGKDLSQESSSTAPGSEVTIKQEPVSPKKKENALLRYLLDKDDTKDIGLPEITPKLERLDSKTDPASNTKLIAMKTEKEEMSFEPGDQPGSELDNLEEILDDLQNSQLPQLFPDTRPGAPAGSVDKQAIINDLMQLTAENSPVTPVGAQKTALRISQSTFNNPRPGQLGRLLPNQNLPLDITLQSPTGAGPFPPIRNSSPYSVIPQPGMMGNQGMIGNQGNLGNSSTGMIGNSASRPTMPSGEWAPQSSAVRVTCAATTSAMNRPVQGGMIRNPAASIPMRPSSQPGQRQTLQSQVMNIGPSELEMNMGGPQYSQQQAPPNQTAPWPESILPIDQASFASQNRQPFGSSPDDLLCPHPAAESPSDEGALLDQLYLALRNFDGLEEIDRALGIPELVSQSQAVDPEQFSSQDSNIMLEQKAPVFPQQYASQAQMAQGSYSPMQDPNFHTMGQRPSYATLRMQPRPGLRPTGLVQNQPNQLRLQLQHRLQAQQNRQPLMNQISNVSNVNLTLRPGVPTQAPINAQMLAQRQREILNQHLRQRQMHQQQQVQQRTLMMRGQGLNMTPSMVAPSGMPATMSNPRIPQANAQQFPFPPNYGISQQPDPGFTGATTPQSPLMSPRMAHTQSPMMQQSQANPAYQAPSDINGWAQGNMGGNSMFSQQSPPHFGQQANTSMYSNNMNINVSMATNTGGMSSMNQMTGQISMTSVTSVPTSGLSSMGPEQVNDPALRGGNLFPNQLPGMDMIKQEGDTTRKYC
Chain of Peroxisome proliferator-activated receptor gamma/Nuclear receptor coactivator 3 (P37231 whole entry): as the sequence (P37231 whole entry) above
Chain of Peroxisome proliferator-activated receptor gamma/Nuclear receptor coactivator 3 (Q9Y6Q9 whole entry, further chain): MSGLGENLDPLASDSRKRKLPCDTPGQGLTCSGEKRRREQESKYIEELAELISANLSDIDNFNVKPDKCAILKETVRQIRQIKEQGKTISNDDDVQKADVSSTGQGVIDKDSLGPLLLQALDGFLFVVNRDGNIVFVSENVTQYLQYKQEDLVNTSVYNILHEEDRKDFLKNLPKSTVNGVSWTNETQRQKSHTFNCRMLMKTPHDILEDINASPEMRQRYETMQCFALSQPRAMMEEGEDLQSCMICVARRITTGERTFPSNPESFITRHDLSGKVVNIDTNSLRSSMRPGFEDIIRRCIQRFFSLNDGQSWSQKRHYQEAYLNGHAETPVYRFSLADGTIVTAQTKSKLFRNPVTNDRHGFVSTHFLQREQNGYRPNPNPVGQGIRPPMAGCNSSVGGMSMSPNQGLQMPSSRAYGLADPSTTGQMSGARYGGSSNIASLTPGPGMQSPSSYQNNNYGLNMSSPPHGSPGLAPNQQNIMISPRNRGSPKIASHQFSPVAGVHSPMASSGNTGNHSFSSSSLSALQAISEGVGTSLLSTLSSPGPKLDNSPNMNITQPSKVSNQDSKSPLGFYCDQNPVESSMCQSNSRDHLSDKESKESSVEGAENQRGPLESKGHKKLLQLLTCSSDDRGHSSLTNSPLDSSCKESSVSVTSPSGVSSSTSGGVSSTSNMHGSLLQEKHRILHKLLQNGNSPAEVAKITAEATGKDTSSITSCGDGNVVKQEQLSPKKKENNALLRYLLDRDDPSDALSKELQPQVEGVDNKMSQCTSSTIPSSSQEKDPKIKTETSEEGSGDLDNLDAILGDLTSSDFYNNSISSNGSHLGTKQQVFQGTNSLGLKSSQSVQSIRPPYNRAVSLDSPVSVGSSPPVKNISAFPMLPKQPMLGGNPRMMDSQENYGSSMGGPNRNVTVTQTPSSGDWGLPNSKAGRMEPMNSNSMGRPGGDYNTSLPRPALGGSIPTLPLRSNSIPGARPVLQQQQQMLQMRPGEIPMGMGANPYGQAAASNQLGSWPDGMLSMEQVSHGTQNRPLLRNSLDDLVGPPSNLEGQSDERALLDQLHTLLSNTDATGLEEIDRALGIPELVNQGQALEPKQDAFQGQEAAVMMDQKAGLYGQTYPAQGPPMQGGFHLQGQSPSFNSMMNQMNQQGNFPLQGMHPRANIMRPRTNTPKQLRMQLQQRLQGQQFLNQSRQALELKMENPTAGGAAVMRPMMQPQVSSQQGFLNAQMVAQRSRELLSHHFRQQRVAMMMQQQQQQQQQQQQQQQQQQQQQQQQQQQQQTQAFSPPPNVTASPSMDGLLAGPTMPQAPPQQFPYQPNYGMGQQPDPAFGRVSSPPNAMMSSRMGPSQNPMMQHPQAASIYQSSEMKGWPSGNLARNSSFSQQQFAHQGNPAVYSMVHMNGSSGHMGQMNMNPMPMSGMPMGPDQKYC
Chain of Procathepsin L (P07711 whole entry): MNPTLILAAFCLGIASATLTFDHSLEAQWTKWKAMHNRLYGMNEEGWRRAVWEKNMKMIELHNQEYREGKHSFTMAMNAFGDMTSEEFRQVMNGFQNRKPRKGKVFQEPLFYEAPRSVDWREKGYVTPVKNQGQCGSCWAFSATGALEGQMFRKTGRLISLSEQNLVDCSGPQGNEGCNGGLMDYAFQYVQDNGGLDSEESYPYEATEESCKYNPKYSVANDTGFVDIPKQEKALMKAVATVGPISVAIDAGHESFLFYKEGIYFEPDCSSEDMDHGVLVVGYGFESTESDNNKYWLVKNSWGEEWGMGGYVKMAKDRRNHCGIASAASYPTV

**Q.** Which EC50 [1] does the source give for `Cc1ccc(C(=O)N2c3ccccc3Sc3ccccc32)cc1` here?
**A.** > 500 µM (not active)

**Q.** What does the source list for `O=C(Nc1ccc(Cl)nc1)c1ccc(F)cc1`?
**A.** EC50 [2]: 1.46 µM (active); EC50 [3]: 5.9 µM (active)

**Q.** Which EC50 [4] does the source give for `Cc1ccc(C)n1-c1ccc(C(=O)NN)s1` here?
**A.** > 100 µM (not active)

**Q.** For `CC12C=C(/C=C/CCc3ccco3)C(C)(C1)C(CCc1ccco1)CC2=O` (stereo not given), which AC50 [5] is on record?
**A.** 6.31 µM (inconclusive)

**Q.** For `N#C/C(=C/c1ccc(N2CCOCC2)o1)C(=O)NC1CCCCC1`, which IC50 [6] is on record?
**A.** 109 µM (active)

**Q.** And the EC50 [7]?
**A.** > 100 µM (active)

**Q.** Which results are given for `CCOC(=O)c1c(C)[nH]c(C(=O)COC(=O)CNC(=O)C2CCCCC2)c1C`?
**A.** EC50 [8]: > 79.4 µM (not active); EC50 [9]: > 79.4 µM (not active); EC50 [10]: > 79.4 µM (not active)

**Q.** With `O=C(/C=C/c1ccc(O)c(O)c1)OC1C(O)CC(OC(=O)/C=C/c2ccc(O)c(O)c2)(C(=O)O)CC1O` (stereo not given) as the molecule, how does the IC50 [11] read?
**A.** 1.94 µM (active)

**Q.** And the IC50 [12]?
**A.** > 59.6 µM (not active)

**Q.** What about the IC50 [13] of the same molecule?
**A.** 18.9 µM (inactive)

**Q.** And the AC50 [14]?
**A.** 5.43 µM (active)

**Q.** What about the IC50 [15] of the same molecule?
**A.** 85.2 µM (inconclusive)

**Q.** And the IC50 [16]?
**A.** 31.9 µM (active)

**Q.** With `O=C1/C(=C\c2ccc(O)c(O)c2)C(c2ccccc2)=NN1c1ccccc1` as the molecule, how does the IC50 [17] read?
**A.** 27.1 µM (active)

**Q.** With `O=C(N/N=C/c1ccc(OC(F)F)cc1)c1cccc(S(=O)(=O)N2CCOCC2)c1` as the molecule, how does the EC50 [18] read?
**A.** > 35.4 µM (not active)

**Q.** What about the EC50 [19] of the same molecule?
**A.** > 35.4 µM (not active)

**Q.** And the EC50 [20]?
**A.** > 35.4 µM (not active)
